“And” between values parts separate entries of the source, which are not always exact repeats. Equal entries are not always repeated. Where two headings read alike, the source gives them in different places.

For one data set, the system named is NADPH oxidase. The experiment in a line: NADPH-dependent superoxide generation in membrane fractions (lucigenin chemiluminescence / SOD-inhibitable cytochrome c reduction). It counts as biochemical, rat. To be noted: membrane fractions of diabetic fibroblasts. Here is the method:
To study NADPH oxidase activity, cell pellets collected by trypsinization and suspended in 20 mM MOPS-KOH buffer, pH 7.4 containing 250 mM, 0.1 mM EDTA and a cocktail of protease inhibitors. The cells were disrupted by sonication on ice and the cell lysates were fractionated by centrifugation twice at 29,000×g for 15 min, discarding the supernatant each time. The pellet was resuspended in sucrose buffer and assayed for NADPH oxidase activity using lucigenin chemiluminescence or cytochrome c reduction-based assay. Briefly, membrane fractions (˜10 μg protein) were diluted in sucrose buffer/protease inhibitors and then lucigenin was added ((5 μM) in the presence or absence of 100 μM NADPH. The chemiluminescence was measured in 30 sec intervals over 5 min. The specificity of superoxide measured was confirmed by adding peg-SOD (10 units/ml). For the assessment of SOD-inhibitable cytochrome reduction, ˜100 μg membrane protein was added to a buffer containing cytochrome c (50 μM), NADPH (100 μM) and in the presence or absence of peg-SOD. After one hr, activity was measured as the SOD-inhibitable increase in absorbance at 550 nm (EmM=21). Assay conditions were established confirming the linearity of superoxide production with time and protein concentrations.
Following the procedures above, it was determined that superoxide generation over a 30-minute period was 55% higher in DFs relative to corresponding control values (FIG. 1A). This radical is a by-product of mitochondrial respiration and enzymatic oxidases. Accordingly, it was examined whether the observed elevation in superoxide stemmed from enhanced activity of the non-phagocytic NAD(P)H oxidase.

Data set [1] relates to diabetic fibroblasts (DFs). To be noted: for loss in cell viability: rat, 16 h. Here is the method:
(§1) To quantify relative cell death in control and diabetic fibroblasts, cells were seeded at 1×10^4 cells/well on a 96-well plate. After a 24 h incubation period, the cells were exposed to various concentrations of HP in serum-free medium at 37° C. for 2 h [lactate dehydrogenase (LDH), a marker for necrotic cell death] or for 16 h (cell viability and apoptosis assay). Quantification of cell viability and caspase-3-like activity was achieved using a Cell Counting Kit-8 (Dojindo, Kumamoto, Japan) and an Apo-ONE homogenous caspase-3/7 assay (Promega), respectively. The values obtained were normalized to the vehicle-treated cells. To measure the rate of necrotic cell death, a LDH release assay was performed using a CytoTox-ONE Homogeneous Membrane Integrity Assay kit (Promega). In some experiments, cells were pre-incubated for 1 h with 2 μg of the ATPase inhibitor oligomycin before exposure to HP.

The subject of data set [2] is control fibroblasts (CFs). To be noted: rat, 16 h. Here is the method: as §1
The subject of another data set is CFs and DFs. Put plainly: Lipid peroxidation (DPPP fluorescence) in control and diabetic fibroblasts. To be noted: stressed CFs and DFs; markedly higher in diabetic than in control cells, FIG. 1E. It counts as cell-based, rat. Here is the method:
To measure lipid peroxidation and plasma membrane redox system (PMRS) enzymes, a total of 10-20 μg of purified plasma membrane protein in a butler containing 50 mM Tris at pH 7.6, 0.2 mM NADH, and 0.1% Triton X-100 was analyzed in the spectrophotometric determination (340 nm) of the activities of NADH CoQ and NADH-ascorbate free radical reductase [also known cytochrome b5 reductase, following the respective additions of coenzyme Q (0.2 mM) and fresh ascorbate (0.4 mM). NQO1 activity was measured at 550 nm in solution buffer containing 5 mM. Tris-HCl at pH 7.6, 0.2 mM NADPH, 0.1% Triton X-100, 10 μM menadione and 75 μM cytochrome c with or without dicoumarol. Calculation of the activity of NQO1 was based on the difference between the uninhibited and the dicoumarol-inhibited samples. Cells were assessed for lipid peroxidation using the diphenyl-1-pyrenylphosphine (DPPP, Invitrogen) fluorescence-based assay. […] The plate was read for DPPP fluorescence (excitation at 340 nm and emission at 405 nm) in a 96-well fluorescence plate reader. […]
To monitor whether the diabetes-induced elevation in intracellular levels of ROS may reflect an increase in lipid peroxidation, a marker of accumulative oxidative stress (OS), the lipid peroxide formation of CFs and DFs at baseline and under stressed conditions was measured using the dye DPPP, which intercalates and reacts with lipid hydroperoxides.

The subject of data set [3] is control fibroblasts (CFs). The experiment in a line: Caspase-3-like activity (Apo-ONE caspase-3/7 assay), control fibroblasts. In kind it is cell-based, rat. The protocol:
as §1

The subject of data set [4] is Nrf2. Put plainly: Nuclear accumulation of Nrf2 in control fibroblasts (subcellular fractionation, Western blot). In kind it is cell-based, rat. To be noted: CFs, OS-inducing agent, FIG. 3D. Here is the method: (§2) To quantify responses to oxidative stress activators, fibroblasts of control and of type 2 diabetes were treated with vehicle or the OS-inducing agents ‘t-butylhydroquinone (tBHQ, 100 μM, Sigma) or oligomycin (15 μM, Sigma) for 16 h. The Cells were processed for total RNA extraction or western blotting analysis as outlined below. Both of these compounds were dissolved in ethanol with a final concentration of 0.01%. […] To analyze protein expression and phosphorylation, cells were seeded in 6-well plates and treated as described above. They were washed with ice-cold PBS, scraped into PBS, and centrifuged at 1000 rpm for 5 min. The cell pellet was then subjected to subcellular fractionation. To make the total cell lysate, the cells were lysed with RIPA buffer supplemented with a protease inhibitor mixture and a phosphatase inhibitor mixture. The protein concentration was determined using BCA protein assay reagents (Pierce). […]

The subject of data set [5] is Nrf2. The experiment in a line: Nuclear accumulation of Nrf2 in diabetic fibroblasts (subcellular fractionation, Western blot). In kind it is cell-based, rat. To be noted: for nuclear accumulation of Nrf2: DFs, OS-inducing agent, compared with CFs, FIG. 3D. Here is the method:
To quantify responses to oxidative stress activators, fibroblasts of control and of type 2 diabetes were treated with vehicle or the OS-inducing agents ‘t-butylhydroquinone (tBHQ, 100 μM, Sigma) or oligomycin (15 μM, Sigma) for 16 h. The Cells were processed for total RNA extraction or western blotting analysis as outlined below. Both of these compounds were dissolved in ethanol with a final concentration of 0.01%. […] To analyze protein expression and phosphorylation, cells were seeded in 6-well plates and treated as described above. They were washed with ice-cold PBS, scraped into PBS, and centrifuged at 1000 rpm for 5 min. The cell pellet was then subjected to subcellular fractionation. To make the total cell lysate, the cells were lysed with RIPA buffer supplemented with a protease inhibitor mixture and a phosphatase inhibitor mixture. The protein concentration was determined using BCA protein assay reagents (Pierce). Fifty micrograms of total cell lysate (or cytosolic, or nuclear) fractions were resolved on a 10% SDS-polyacrylamide gel, Western blotted, and probed with antibodies specific for Nrf2, Kcap1 or Fyn (all from Santa Cruz) or GSK-3β, GSK-3β-phosho-Ser9 (P-GSK3-β, and phosphor GSK-α/-β (pTyr279/pTyr216) (Cell Signaling). The purity of the subcellular fractions was confirmed using the anti-LDH antibody (Chemieon International) and the anti-PCNA antibody (Santa Cruz) for cytosolic and nuclear fractions, respectively. The levels of protein on a Western blot were assessed using Quantity One Image software (Bio-Rad) and normalized against suitable loading controls, including anti-β-actin antibody for total and cytosolic fractions and anti-PCNA antibody for the nuclear fraction.
On the technique in general: Immunoblotting shows a protein as a band on a membrane.

Data set [6] concerns control fibroblasts (CFs). The experiment in a line: mRNA of Nrf2-regulated genes by real-time PCR in control fibroblasts. In kind it is cell-based, rat. Here is the method:
(§3) To quantify responses to oxidative stress activators, fibroblasts of control and of type 2 diabetes were treated with vehicle or the OS-inducing agents ‘t-butylhydroquinone (tBHQ, 100 μM, Sigma) or oligomycin (15 μM, Sigma) for 16 h. The Cells were processed for total RNA extraction or western blotting analysis as outlined below. Both of these compounds were dissolved in ethanol with a final concentration of 0.01%. […] To measure transcription of Nrf2 target genes and NADPH oxidase genes, RNA (1 μg) was isolated from cultured fibroblasts using Trizol reagent (Invitrogen) and reverse transcribed for 1 h at 37° C. using the High Capacity cDNA Reverse Transcription Kit. Real-time quantitative RT-PCR was performed with the TaqMan Gene Expression Assay and was normalized against 18S RNA using an ABI 7900 Real-time PCR System (Applied Biosystems). Primers and probes were designed by and purchased from Applied Biosystems. Primer efficiency and specificity were verified by amplifying standard dilutions of a probe obtained by pooling all the samples and by melting curve analysis, respectively.
For orientation: In qPCR the cycle at which signal appears reflects the starting amount.

For data set [7], the system named is diabetic fibroblasts (DFs). The experiment in a line: mRNA of Nrf2-regulated genes by real-time PCR in diabetic fibroblasts. To be noted: tBHQ treatment. It counts as cell-based, rat. Here is the method: as §3
The test system of data set [8] is Nrf2. Put plainly: Nrf2 level in total cell lysates (Western blot). It counts as cell-based, rat. To be noted: control and diabetic fibroblasts, to about the same extent, FIG. 3A. Here is the method:
as §2

For data set [9], the system named is diabetic fibroblasts (DFs). The experiment in a line: Superoxide generation in diabetic fibroblasts (dihydroethidium fluorescence). To be noted: superoxide generation over a 30-minute period, FIG. 1A. In kind it is cell-based, rat. The protocol: Primary rat fibroblasts were derived from dorsal skin biopsies performed on four diabetic Goto Kakizaki rats (DFs) and four age (12-14 months) and sex (female) matched Wistar control rats (CFs). After sterilization in povidine solution, the rat skin was washed in sterile water and rinsed in 70% ethanol in phosphate buffered saline (PBS). The epidermis and dermis were separated following overnight incubation in 0.25% Trypsin/EDTA at 4° C. Samples were washed, diced and digested for thirty min at 37° C. in collagenase type I (250 U/ml) dissolved in Dulbecco's modified Eagle medium (DMEM; Invitrogen) containing penicillin (100 U/ml), streptomycin (100 μg/ml), 2 mM L-glutamine and 26 mM HEPES. After collagenase treatment, the cells were dislodged, centrifuged and resuspended in medium supplemented with 10% fetal bovine serum. […]
To characterize oxidative conditions of cutaneous tissue, cells in 96-well plates were washed with Krebs Ringer buffer and then incubated at 37° C. in the presence of 10 μM of dihydroethidium (DHE, Molecular Probes). Fluorescence readings were taken at Ex 530 nm and Em=595 nm over a 30 min period. The determination of GSH (reduced glutathione) was achieved using the fluorescence probe monochlorobimane (MCB, Molecular Probes). Cells were incubated with 100 μl of […] MCB for 20 min at 37° C., and the fluorescence intensity was measured at Ex=390 nm and Em=460 nm. […]

Setting [10] is: CFs / normal fibroblasts, tBHQ treatment.

Take `COC(=O)[C@@H](N)CCCNC(=N)N[N+](=O)[O-]` [L-NAME]: in the data set with NADPH oxidase, the “effect on superoxide production” value is “did not have a significant effect”.
Regarding `OO` [HP, hydrogen peroxide], the “fold increase in caspase-3-like activity” value in [1] (50 μM HP) is reported as 5.4 fold; in data set [3] (controls (CFs), 50 μM HP), 8.2 fold. The “loss in cell viability” value is recorded as 17% in data set [1] (37.5 μM); 55% in data set [1] (50 μM); 78% in [1] (75 μM); 6% in [2] (37.5 μM); 22% in data set [2] (50 μM); 53% in data set [2] (75 μM). In addition, the “lipid peroxidation (DPPP fluorescence)” value in the data set on CFs and DFs is “enhancement in lipid peroxidation”.
In the case of `CC(C)(C)OO` [t-BHP], the “lipid peroxidation (DPPP fluorescence)” value with CFs and DFs is “enhancement in lipid peroxidation”.
For the molecule `CC[C@H]1/C=C/C=C/C[C@@H](C)[C@H](O)[C@@](C)(O)C(=O)[C@@H](C)[C@H](O)[C@@H](C)C(=O)[C@@H](C)[C@H](O)[C@@H](C)/C=C/C(=O)O[C@@H]2[C@H](C)[C@H](CC1)O[C@]1(CC[C@H](C)[C@H](C[C@@H](C)O)O1)[C@H]2C` [oligomycin], in the data set on Nrf2 [4], the “Nrf2 in the nuclei-enriched fraction” value was “markedly elevated”. For the same molecule, in the data set with Nrf2 [5], the “nuclear accumulation of Nrf2” value is “far smaller increase”. Further, in [3] (CFs pre-treated with a 2-μg dose of oligomycin), the “ability of HP to enhance caspase-3-like activities” value was “suppresses”. In data set [6] (CFs, oligomycin treatment, FIG. 3F), the “expression of Mn-SOD, catalase, GSTP1, GCLC and NQO1 mRNA” value was “increase in the expression of Mn-SOD, catalase, GSTP1 and GCLC but not of NQO1”.
As for `Cn1sc(=O)n(Cc2ccccc2)c1=O` [TDZD-8, 4-benzyl-2-methyl-1,2,4-thiadiazolidine-3,5-dione], in the data set on Nrf2 [5] (DFs pretreated 8 h with lithium chloride 50 mM or TDZD-8 50 μM, FIG. 4B only shown for lithium), the “basal and inducible levels of nuclear Nrf2” value is “partially normalized”.
`CC(C)(C)c1cc(O)ccc1O` [tBHQ, tert-butylhydroquinone]: the “percent increase of Nrf2-dependent transcripts (catalase, GSTP1, GCLC, NQO1)” value in [7] (DFs, FIG. 3E) is listed as 32%-78%. Further, the “upregulation of anti-oxidative enzymes” value in [7] (cells with overabundant oxidative stress and impaired Nrf2 response) is given as 1.5 to 2 fold. For the same molecule, in the data set with Nrf2 [8], the “level of Nrf2 in total cell lysates” value is listed as “elevates”. Besides, the “Nrf2 in the nuclei-enriched fraction” value in the data set with Nrf2 [4] was “markedly elevated”. In addition, the “nuclear accumulation of Nrf2” value in the data set on Nrf2 [5] was “far smaller increase”. In addition, in data set [6] (setting [10]), the “increase of GCLC mRNA expression” value is 5-7 fold and 5.7 fold; the “increase of GSTP1 mRNA expression” value is 5-7 fold and 6.3 fold; the “increase of NQO1 mRNA expression” value was 4-6 fold and 4.8 fold; the “increase of catalase mRNA expression” value is 7-10 fold and 8.8 fold. For the same molecule, the “increase of GR mRNA expression” value in data set [6] (normal fibroblasts, tBHQ treatment) is 3-4 fold. Further, the “levels of Cu/Zn SOD or Mn-SOD (SOD2) mRNA” value in [6] (tBHQ treatment, cell type not given) is “no observable changes”.
For `c1ccc(Cn2nnc3c(Sc4nc5ccccc5o4)ncnc32)cc1` [VAS2870], in [9], the “reduction of the diabetes-related increase in superoxide” value is “about 31%”. Also, in the data set with NADPH oxidase (FIG. 1B), the “reduction of NADPH-dependent superoxide production (activity)” value was “about 87%”.
As for `Oc1ncnc2[nH]ncc12` [allopurinol], the “effect on superoxide production” value in the data set with NADPH oxidase is on record as “did not have a significant effect”.

These data come from patent US20130171273A1, “METHOD OF TREATING IMPAIRED WOUND HEALING IN DIABETICS” (KUWAIT UNIVERSITY, priority 2011, published 2013).
